Measurements published in patent US11564920B2, “5-heteroaryl-1H-pyrazol-3-amine derivative” (Sumitomo Pharma Co., Ltd., priority 2020, dated 2023).

Legend:
ES-2 cells = test: Cell growth suppression experiment; type: cell-based; conditions: for IC50: Homo sapiens, 48 h, cultured for 2 days, read-out: IC50 (cell growth suppression, ranking)
Method: ES-2 cells were obtained from the American Type Culture Collection (ATCC). These cells were cultured at 37° C. in the presence of 5% CO2 in a 10% fetal bovine serum, […] penicillin/streptomycin containing McCoy's 5a medium.
500 cells were seeded for each well in a 384-well plate, and the evaluated compound was added so that the final concentration of DMSO would be 0.1% to culture the cells for 2 days. After completion of the culture, the cell viability rate was calculated using CellTiter-Glo® 3D Reagent (Promega, G968B).

CDK19/CYCLIN C = CDK19/CYCLIN C (Homo sapiens (Human), UniProt Q9BWU1); test: Kinase selectivity test (HotSpot Full Panel Kinase profiling); type: biochemical; conditions: 100 nM, ATP 10 μM; read-out: Residual activity (%) CDK19/CYCLIN C
Method: (§1) Buffer: 20 mM HEPES, pH 7.5, 10 mM MgCl2, 2 mM […] (as needed), 1 mM EGTA, 0.02% Brij35, 0.02 mg/mL BSA, 0.1 mM Na3VO4, 2 mM DTT, 1% DMSO
(§2) ATP conversion rate in 2 hours: 5 to 20%
(§3) Compound concentration: 100 nM

MEK5 = MEK5 (Homo sapiens (Human), UniProt Q13163); test: as above; type: biochemical; conditions: 100 nM, ATP 10 μM; read-out: Residual activity (%) MEK5
Method: as §1, §2, §3

SIK1 = SIK1 (Homo sapiens (Human), UniProt P57059); test: as above; type: biochemical; conditions: 100 nM, ATP 10 μM; read-out: Residual activity (%) SIK1
Method: as §1, §2, §3

LRRK2 = LRRK2 (Homo sapiens (Human), UniProt Q5S007); test: as above; type: biochemical; conditions: 100 nM, ATP 10 μM; read-out: Residual activity (%) LRRK2
Method: as §1, §2, §3

GLK/MAP4K3 = GLK/MAP4K3 (Homo sapiens (Human), UniProt Q8IVH8); test: as above; type: biochemical; conditions: 100 nM, ATP 10 μM; read-out: Residual activity (%) GLK/MAP4K3
Method: as §1, §2, §3

CYP3A4 = CYP3A4 (Homo sapiens (Human), UniProt P08684); test: CYP3A4 MBI and enzyme inactivation clearance evaluation; type: in vitro ADME; conditions: human liver microsome
Method: The effect and mode of inhibition of the test compound on CYP3A4 were evaluated using a human liver microsome as an enzyme source and midazolam or testosterone as a substrate. […] The IC50 value was calculated from a concentration plot.

MARK3 = MARK3 (Homo sapiens (Human), UniProt P27448); test: Kinase selectivity test (HotSpot Full Panel Kinase profiling); type: biochemical; conditions: 100 nM, ATP 10 μM; read-out: Residual activity (%) MARK3
Method: as §1, §3

CDK8/CYCLIN C = CDK8/CYCLIN C (Homo sapiens (Human), UniProt P49336); test: as above; type: biochemical; conditions: 100 nM, ATP 10 μM; read-out: Residual activity (%) CDK8/CYCLIN C
Method: as §1, §3

MARK2/PAR-1BA = MARK2/PAR-1BA (Homo sapiens (Human), UniProt Q7KZI7); test: as above; type: biochemical; conditions: 100 nM, ATP 10 μM; read-out: Residual activity (%) MARK2/PAR-1BA (PAR-18A in Table 33)
Method: as §1, §3

MARK1 = MARK1 (Homo sapiens (Human), UniProt Q9P0L2); test: as above; type: biochemical; conditions: 100 nM, ATP 10 μM; read-out: Residual activity (%) MARK1
Method: as §1, §3

CHK1 [1] = target: T1, CHK1 (Homo sapiens (Human), UniProt O14757); test: CHK1/CHK2 selectivity test (LabChip mobility shift); type: biochemical; conditions: read-out: IC50 value with respect to CHK1
[2] = Liposome encapsulation test of Example 1 (Test Example 6A); type: physicochemical
Method: 11.08 g of Presome ACD-1 (pre-prepared mixture consisting of hydrogenated soybean phosphatidylcholine, cholesterol, and distearoylphosphatidylethanolamine-methoxypolyethylene glycol 2000 at a mass ratio of 3:1:1, Nippon Fine Chemical Co., Ltd.) was weighed out, and 200 mL of 250 mM ammonium sulfate solution was added. The resulting mixture was heated to 65° C. and dispersed with a homogenizer (ULTRA-TURRAX, IKA) to obtain a crude liposome dispersion. […] The mixture was filtered through a 0.22 μm membrane filter to obtain an empty liposome solution with a total lipid concentration of 75 mM (75 μmol/mL).
The compound of Example 1 was weighed out. About 0.4 mL of 10 mM L-histidine buffer/10% sucrose solution (pH 6.5), about 0.1 mL of 0.1 mol/L hydrochloric acid, and 1 mL of the empty liposome solution were added, and the pH was adjusted to 6 to 6.5 by adding 1 mol/L hydrochloric acid. The mixture was heated for 30 minutes in a 65° C. water bath and then cooled with ice. The mixture was then filtered through a 0.22 μm membrane filter.
The liposome encapsulation ratio was calculated as follows. Unencapsulated compound concentration: The compound concentration was measured by HPLC for a solution prepared by adding 100 μL of aqueous 4% phosphoric acid solution to 100 μL of liposome solution. HPLC measurement conditions are the following.
Compound concentration in liposome solution: The liposome solution was diluted with a trifluoroacetic acid/water/methanol mixture (0.1/25/75) and was left standing for 10 minutes or longer at 5° C. The mixture was centrifuged for 5 minutes at 15,000×g to remove insolubles. The compound concentration in the supernatant was measured by HPLC. HPLC measurement conditions are the following. HPLC Conditions Column: Acquity UPLC BEH C18, 1.7 μm, 50×2.1 mm Column temperature: 40° C. Mobile phase: A: 0.1% trifluoroacetic acid containing water B: acetonitrile A/B (min): 95/5 (0)→0/100 (3.5)→0/100 (4)→95/5 (4.01)→95/5 (5) Flow rate: 0.8 mL/min Detection: UV visible detector, measured wavelength 254 nm injected volume: 5 μL
The encapsulation ratio and encapsulation efficiency were calculated by the following equations. Encapsulation ratio (%)=(compound concentration in liposome solution−unencapsulated compound concentration)×100/compound concentration in liposome solution Encapsulation efficiency (%)=(compound concentration in liposome solution−unencapsulated compound concentration)[…]

CHK1 [3] = target: T1, CHK1; test: Kinase selectivity test (HotSpot Full Panel Kinase profiling); type: biochemical; conditions: 100 nM, ATP 10 μM; read-out: Residual activity (%) CHK1
Method: as §1, §3

Chain of CYP3A4 (P08684 whole entry): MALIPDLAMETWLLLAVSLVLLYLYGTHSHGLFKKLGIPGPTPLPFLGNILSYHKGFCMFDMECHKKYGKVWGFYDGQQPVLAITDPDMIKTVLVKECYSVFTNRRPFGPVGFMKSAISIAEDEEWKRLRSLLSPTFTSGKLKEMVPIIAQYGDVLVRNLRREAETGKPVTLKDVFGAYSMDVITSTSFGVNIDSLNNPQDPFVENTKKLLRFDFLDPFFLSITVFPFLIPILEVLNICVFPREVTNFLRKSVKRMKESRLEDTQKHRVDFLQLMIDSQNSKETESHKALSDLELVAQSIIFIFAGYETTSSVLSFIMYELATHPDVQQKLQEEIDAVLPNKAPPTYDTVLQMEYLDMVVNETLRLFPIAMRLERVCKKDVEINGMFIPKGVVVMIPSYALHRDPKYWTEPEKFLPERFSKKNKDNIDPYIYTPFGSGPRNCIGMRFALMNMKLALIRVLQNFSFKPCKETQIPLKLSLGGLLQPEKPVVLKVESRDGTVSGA
T1 sequence (O14757 whole entry): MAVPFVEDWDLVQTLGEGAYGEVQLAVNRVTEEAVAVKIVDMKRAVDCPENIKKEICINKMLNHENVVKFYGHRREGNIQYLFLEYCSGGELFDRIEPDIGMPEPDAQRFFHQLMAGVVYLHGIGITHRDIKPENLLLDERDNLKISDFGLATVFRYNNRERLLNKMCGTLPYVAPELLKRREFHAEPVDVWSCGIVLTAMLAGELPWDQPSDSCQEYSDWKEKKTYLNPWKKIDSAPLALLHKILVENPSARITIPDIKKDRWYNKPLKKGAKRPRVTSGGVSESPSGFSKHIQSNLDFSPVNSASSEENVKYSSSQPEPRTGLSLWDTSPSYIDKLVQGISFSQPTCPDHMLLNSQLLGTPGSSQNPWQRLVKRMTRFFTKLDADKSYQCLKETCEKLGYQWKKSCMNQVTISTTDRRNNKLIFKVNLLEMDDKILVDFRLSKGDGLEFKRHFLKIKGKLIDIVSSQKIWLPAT
Chain of CDK8/CYCLIN C (P49336 whole entry): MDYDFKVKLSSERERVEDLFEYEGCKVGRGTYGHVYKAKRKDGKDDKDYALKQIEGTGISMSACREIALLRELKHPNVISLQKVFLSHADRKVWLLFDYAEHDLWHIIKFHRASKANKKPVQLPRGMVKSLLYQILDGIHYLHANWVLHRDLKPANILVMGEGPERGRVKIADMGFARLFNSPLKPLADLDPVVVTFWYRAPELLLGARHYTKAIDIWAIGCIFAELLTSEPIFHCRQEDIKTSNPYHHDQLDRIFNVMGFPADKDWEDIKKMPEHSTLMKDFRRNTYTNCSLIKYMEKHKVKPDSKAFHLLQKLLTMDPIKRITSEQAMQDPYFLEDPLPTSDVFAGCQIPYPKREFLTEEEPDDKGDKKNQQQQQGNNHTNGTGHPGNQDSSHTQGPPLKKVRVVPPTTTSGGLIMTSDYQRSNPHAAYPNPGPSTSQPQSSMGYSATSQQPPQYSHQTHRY
Chain of CDK8/CYCLIN C (P24863 whole entry partner): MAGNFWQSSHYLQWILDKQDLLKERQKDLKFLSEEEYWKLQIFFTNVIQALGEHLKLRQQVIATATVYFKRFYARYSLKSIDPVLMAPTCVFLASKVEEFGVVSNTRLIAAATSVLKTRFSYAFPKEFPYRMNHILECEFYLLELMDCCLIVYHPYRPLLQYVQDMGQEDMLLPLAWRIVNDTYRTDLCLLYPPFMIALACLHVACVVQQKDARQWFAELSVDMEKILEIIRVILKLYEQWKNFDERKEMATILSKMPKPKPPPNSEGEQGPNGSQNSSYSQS
Chain of GLK/MAP4K3 (Q8IVH8 whole entry): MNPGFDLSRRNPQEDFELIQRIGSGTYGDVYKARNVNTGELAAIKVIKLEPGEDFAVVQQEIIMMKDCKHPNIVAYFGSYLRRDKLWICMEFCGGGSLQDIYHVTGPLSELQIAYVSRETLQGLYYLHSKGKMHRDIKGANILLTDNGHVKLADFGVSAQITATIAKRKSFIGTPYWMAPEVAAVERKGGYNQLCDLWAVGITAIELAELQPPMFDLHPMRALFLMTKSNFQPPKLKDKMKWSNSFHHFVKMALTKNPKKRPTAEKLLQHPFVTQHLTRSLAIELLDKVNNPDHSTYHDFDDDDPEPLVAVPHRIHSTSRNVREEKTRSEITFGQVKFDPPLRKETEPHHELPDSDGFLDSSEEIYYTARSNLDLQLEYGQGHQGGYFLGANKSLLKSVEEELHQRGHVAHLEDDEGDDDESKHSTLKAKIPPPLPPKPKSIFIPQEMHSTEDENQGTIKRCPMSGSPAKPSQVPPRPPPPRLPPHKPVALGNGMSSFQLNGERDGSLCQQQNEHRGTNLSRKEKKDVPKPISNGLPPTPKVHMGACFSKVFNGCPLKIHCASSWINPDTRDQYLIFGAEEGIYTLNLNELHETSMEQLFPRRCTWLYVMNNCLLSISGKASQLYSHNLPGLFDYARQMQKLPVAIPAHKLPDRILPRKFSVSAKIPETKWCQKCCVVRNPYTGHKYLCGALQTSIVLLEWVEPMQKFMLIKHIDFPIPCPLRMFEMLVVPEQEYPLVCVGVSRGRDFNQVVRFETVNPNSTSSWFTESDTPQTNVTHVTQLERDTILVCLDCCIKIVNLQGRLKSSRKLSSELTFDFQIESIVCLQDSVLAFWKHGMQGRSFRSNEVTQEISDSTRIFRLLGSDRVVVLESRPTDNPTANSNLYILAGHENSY
Chain of SIK1 (P57059 whole entry): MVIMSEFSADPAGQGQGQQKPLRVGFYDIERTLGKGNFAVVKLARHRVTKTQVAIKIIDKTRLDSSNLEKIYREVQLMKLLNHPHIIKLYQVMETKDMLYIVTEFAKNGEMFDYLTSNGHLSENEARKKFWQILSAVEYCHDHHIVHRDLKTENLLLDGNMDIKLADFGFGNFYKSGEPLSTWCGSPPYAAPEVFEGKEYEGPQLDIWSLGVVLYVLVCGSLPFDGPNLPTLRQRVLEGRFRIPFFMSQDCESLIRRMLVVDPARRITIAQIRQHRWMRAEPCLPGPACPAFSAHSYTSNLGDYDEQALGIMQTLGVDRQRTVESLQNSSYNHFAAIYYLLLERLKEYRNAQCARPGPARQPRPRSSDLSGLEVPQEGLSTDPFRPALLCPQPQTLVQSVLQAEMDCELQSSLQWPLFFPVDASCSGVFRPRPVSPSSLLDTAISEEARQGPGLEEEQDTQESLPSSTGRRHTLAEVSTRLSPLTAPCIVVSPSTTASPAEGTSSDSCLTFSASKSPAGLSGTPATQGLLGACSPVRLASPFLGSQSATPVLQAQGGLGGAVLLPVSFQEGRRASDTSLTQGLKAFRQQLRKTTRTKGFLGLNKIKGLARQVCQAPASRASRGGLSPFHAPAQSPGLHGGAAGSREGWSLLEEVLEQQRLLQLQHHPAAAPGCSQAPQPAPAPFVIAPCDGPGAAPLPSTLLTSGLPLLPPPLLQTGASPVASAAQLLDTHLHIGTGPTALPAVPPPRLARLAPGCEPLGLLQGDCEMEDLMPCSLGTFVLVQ
Chain of MARK2/PAR-1BA (Q7KZI7 other isoform, or with tags, fused parts or gaps isoform Q7KZI7-4): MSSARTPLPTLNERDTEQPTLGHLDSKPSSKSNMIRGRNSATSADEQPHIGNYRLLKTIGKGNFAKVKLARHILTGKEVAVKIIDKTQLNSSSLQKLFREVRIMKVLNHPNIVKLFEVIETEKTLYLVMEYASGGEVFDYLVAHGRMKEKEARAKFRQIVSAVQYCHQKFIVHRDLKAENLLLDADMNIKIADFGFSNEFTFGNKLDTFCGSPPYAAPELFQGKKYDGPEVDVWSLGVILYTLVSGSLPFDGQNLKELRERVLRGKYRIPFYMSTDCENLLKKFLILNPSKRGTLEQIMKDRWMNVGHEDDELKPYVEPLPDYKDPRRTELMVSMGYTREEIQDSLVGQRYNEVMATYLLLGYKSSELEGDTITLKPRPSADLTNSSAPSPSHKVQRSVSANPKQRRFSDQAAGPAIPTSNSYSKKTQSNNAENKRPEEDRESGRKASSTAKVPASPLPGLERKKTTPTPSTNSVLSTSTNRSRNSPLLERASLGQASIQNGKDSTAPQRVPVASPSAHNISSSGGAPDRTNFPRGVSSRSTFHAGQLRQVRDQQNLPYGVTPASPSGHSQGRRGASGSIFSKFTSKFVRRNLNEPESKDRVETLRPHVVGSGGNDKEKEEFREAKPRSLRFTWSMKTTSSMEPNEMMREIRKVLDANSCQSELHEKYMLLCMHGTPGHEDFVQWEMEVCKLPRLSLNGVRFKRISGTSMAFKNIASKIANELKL
Chain of MARK3 (P27448 whole entry): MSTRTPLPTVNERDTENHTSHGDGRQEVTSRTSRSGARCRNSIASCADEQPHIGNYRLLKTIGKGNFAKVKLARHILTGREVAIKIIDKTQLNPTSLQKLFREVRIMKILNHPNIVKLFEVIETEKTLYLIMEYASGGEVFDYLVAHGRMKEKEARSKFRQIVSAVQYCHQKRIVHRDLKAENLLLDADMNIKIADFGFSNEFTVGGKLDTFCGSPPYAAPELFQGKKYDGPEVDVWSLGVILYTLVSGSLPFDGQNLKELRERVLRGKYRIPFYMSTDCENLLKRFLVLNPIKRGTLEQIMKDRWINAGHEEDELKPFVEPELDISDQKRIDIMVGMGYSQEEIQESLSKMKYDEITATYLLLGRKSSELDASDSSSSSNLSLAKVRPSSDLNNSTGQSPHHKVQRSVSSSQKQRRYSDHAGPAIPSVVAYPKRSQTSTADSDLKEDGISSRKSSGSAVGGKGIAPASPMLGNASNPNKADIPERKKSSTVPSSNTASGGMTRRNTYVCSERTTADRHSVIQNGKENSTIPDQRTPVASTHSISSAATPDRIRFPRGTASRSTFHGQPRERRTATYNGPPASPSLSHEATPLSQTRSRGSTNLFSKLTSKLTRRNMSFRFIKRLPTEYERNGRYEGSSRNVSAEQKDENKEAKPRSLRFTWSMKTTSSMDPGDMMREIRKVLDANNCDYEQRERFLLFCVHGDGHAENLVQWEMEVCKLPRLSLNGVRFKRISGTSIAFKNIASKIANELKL

Row | SMILES | IC50 (ES-2 cells) | remaining activity at 0.1 µM (CDK19/CYCLIN C) | remaining activity at 0.1 µM (MEK5) | remaining activity at 0.1 µM (SIK1) | remaining activity at 0.1 µM (LRRK2) | remaining activity at 0.1 µM (GLK/MAP4K3) | inhibition of CYP3A4 based on MBI (in words) (CYP3A4) | microsomal CLint (CYP3A4; liver microsomes, probe midazolam or testosterone) | remaining activity at 0.1 µM (MARK3) | remaining activity at 0.1 µM (CDK8/CYCLIN C) | remaining activity at 0.1 µM (MARK2/PAR-1BA) | remaining activity at 0.1 µM (MARK1) | IC50 (CHK1 [1]) | cell growth suppression effect (in words) (ES-2 cells; compared with prexasertib) | Factor of change in IC50 value (CYP3A4; by pre-incubation with NADPH, MBI action when 2-fold or greater) | liposome encapsulation efficiency [2] | Encapsulation efficiency ([2]; concentration upon compound introduction 2 mg/mL) | Encapsulation efficiency ([2]; concentration upon compound introduction 3 mg/mL) | Encapsulation efficiency ([2]; concentration upon compound introduction 4 mg/mL) | remaining activity at 0.1 µM (CHK1 [3])
1 | COc1cccc(OCCCN)c1-c1cc(Nc2cnc(C#N)cn2)n[nH]1 [Prexasertib, reference compound] | < 30 nM | 19.9% | 10.7% | 11.9% | 23.5% | 20.8% | exhibits inhibition of CYP3A4 based on MBI | 0.019 µL/min/mg | 12.6% | 18.1% | 14.3% | 14.1% | – | – | – | – | – | – | – | –
2 | COc1ccnc(OCCCN)c1-c1cc(Nc2cnc(C#N)cn2)n[nH]1 [Example 1, 5-({5-[2-(3-aminopropoxy)-4-methoxypyridin-3-yl]-1H-pyrazol-3-yl}amino)pyrazine-2-carbonitrile] | < 30 nM | – | – | – | – | – | do not exhibit inhibition of CYP3A4 based on MBI | – | – | – | – | – | < 0.3 nM | excellent cell growth suppression effect that is equivalent to that of prexasertib | Not Detected | ≥ 90% | 91.3% | 91.6% | 92.2% | 2.87%
